In patent US20130296383A1, “DECAHYDRO-1,4-METHANONAPHTHALEN CARBOXAMIDES” (BAYER INTELLECTUAL PROPERTY GMBH, priority 2010, published 2013):

How the values were obtained:
[1] = system: Puccinia recondita; assay: Puccinia test (wheat) / preventive; format: in vivo; settings: 500 ppm of active ingredient, evaluated 7-9 days after inoculation
Protocol: Puccinia Test (Wheat)/Preventive
(§1) To produce a suitable preparation of active compound, 1 part by weight of active compound is mixed with the stated amounts of solvent and emulsifier, and the concentrate is diluted with water to the desired concentration.
(§2) To test for preventive activity, young plants are sprayed with the preparation of active compound at the stated rate of application. One day after this treatment, the plants are inoculated with an aqueous spore suspension of Puccinia recondita. The plants remain for 48 hours in an incubation cabinet at 22° C. and a relative atmospheric humidity of 100%. Then the plants are placed in a greenhouse at a temperature of approximately 20° C. and a relative atmospheric humidity of approximately 80%.
(§3) The test is evaluated 7-9 days after the inoculation. 0% means an efficacy which corresponds to that of the untreated control while an efficacy of 100% means that no disease is observed.

[2] = system: Venturia inaequalis; assay: Venturia test (apples) / preventive; format: in vivo; settings: 100 ppm of active ingredient, evaluated 10 days after inoculation
Protocol: Venturia Test (Apples)/Preventive
as §1
To test for preventive activity, young plants are sprayed with the preparation of active compound at the stated rate of application. After the spray coating has dried on, the plants are inoculated with an aqueous conidia suspension of the causal agent of apple scab (Venturia inaequalis) and then remain for 1 day in an incubation cabinet at approximately 20° C. and a relative atmospheric humidity of 100%.
The plants are then placed in a greenhouse at approximately 21° C. and a relative atmospheric humidity of approximately 90%.
The test is evaluated 10 days after the inoculation. 0% means an efficacy which corresponds to that of the untreated control, while an efficacy of 100% means that no disease is observed.

[3] = system: Alternaria solani; assay: Alternaria test (tomato) / preventive; format: in vivo; settings: 500 ppm of active ingredient, evaluated 7 days after inoculation
Protocol: Alternaria Test (Tomato)/Preventive
as §1
To test for preventive activity, young plants are sprayed with the preparation of active compound at the stated rate of application. One day after this treatment, the plants are inoculated with an aqueous spore suspension of Alternaria solani. The plants remain for one day in an incubation cabinet at approximately 22° C. and a relative atmospheric humidity of 100%. Then the plants are placed in an incubation cabinet at approximately 20° C. and a relative atmospheric humidity of 96%.
The test is evaluated 7 days after the inoculation. 0% means an efficacy which corresponds to that of the untreated control while an efficacy of 100% means that no disease is observed.

[4] = system: Blumeria graminis f.sp. hordei; assay: Blumeria test (barley) / preventive; format: in vivo; settings: 500 ppm of active ingredient, evaluated 7 days after inoculation
Protocol: Blumeria Test (Barley)/Preventive
(§4) To produce a suitable preparation of active compound, 1 part by weight of active compound or active compound combination is mixed with the stated amounts of solvent and emulsifier, and the concentrate is diluted with water to the desired concentration.
(§5) To test for preventive activity, young plants are sprayed with the preparation of active compound or active compound combination at the stated rate of application.
After the spray coating has been dried, the plants are dusted with spores of Blumeria graminis f.sp. hordei.
The plants are placed in the greenhouse at a temperature of approximately 18° C. and a relative atmospheric humidity of approximately 80% to promote the development of mildew pustules.
(§6) The test is evaluated 7 days after the inoculation. 0% means an efficacy which corresponds to that of the untreated control, while an efficacy of 100% means that no disease is observed.

[5] = system: Septoria tritici; assay: Septoria tritici test (wheat) / preventive; format: in vivo; settings: 500 ppm of active ingredient, evaluated 21 days after inoculation
Protocol: Septoria Tritici-Test (Wheat)/Preventive
as §4, §5
After the spray coating has been dried, the plants are sprayed with a spore suspension of Septoria tritici. The plants remain for 48 hours in an incubation cabinet at approximately 20° C. and a relative atmospheric humidity of approximately 100% and afterwards for 60 hours at approximately 15° C. in a translucent incubation cabinet at a relative atmospheric humidity of approximately 100%.
The plants are placed in the greenhouse at a temperature of approximately 15° C. and a relative atmospheric humidity of approximately 80%.
The test is evaluated 21 days after the inoculation. 0% means an efficacy which corresponds to that of the untreated control, while an efficacy of 100% means that no disease is observed.

[6] = system: Pyrenophora teres; assay: Pyrenophora test (barley) / preventive; format: in vivo; settings: 500 ppm of active ingredient, evaluated 7-9 days after inoculation
Protocol: Pyrenophora Test (Barley)/Preventive
as §1
as §2, with “Pyrenophora teres.” for “Puccinia recondita.”
as §3

[7] = system: Sphaerotheca fuliginea; assay: Sphaerotheca test (cucumber) / preventive; format: in vivo; settings: 500 ppm of active ingredient, evaluated 7 days after inoculation
Protocol: Sphaerotheca Test (Cucumber)/Preventive
as §1
To test for preventive activity, young plants are sprayed with the preparation of active compound at the stated rate of application. One day after this treatment, the plants are inoculated with an aqueous spore suspension of Sphaerotheca fuliginea. Then the plants are placed in a greenhouse at approximately 23° C. and a relative atmospheric humidity of approximately 70%.
as §6

[8] = log P by HPLC on reversed phase columns (EEC directive 79/831 Annex V.A8), method [b]; format: physicochemical
Protocol: Calibration was done with not branched alkan2-ones (with 3 to 16 carbon atoms) with known log P-values (measurement of log P values using retention times with linear interpolation between successive alkanones). lambda-maX-values were determined using UV-spectra from 200 nm to 400 nm and the peak values of the chromatographic signals.

Work on `CC(C)C1C2CCC1C1C(NC(=O)c3c(C(F)F)nn(C)c3F)CCCC21` (stereo not drawn) [Example 1, 3-(difluoromethyl)-5-fluoro-N-(9-isopropyldecahydro-1,4-methanonaphthalen-5-yl)-1-methyl-1H-pyrazole-4-carboxamide] yielded an Eff. % [1] of 95%, an Eff. % [2] of 100% and an Eff. % [3] of 95%. It also gave an Eff. % [4] of 100%, an Eff. % [5] of 90% and an Eff. % [6] of 100%. For the same molecule, the Eff. % [7] was 100%, the “LogP[b]” value ([8]; HPLC, pH 2.7, 0.1% formic acid in water / acetonitrile gradient) was “LogP^[b] = 4.87” and the chromatographic logP ([8]; reversed phase HPLC columns, pH 2.7, acid) was 4.87.
